Measurements taken from patent US7728128B2, “Dibenzo[c,h][1,5]naphthyridines and their use as DNA probes” (Institut National de la Sante et de la Recherche Medicate …, priority 2006, dated 2010).

Tests used:
[1] = system: Methanol-fixed primary human fibroblasts; assay: nuclear fluorescence in fixed cells under continuous illumination; format: cell-based
Procedure: Primary human skin fibroblasts were grown on poly-D-lysine-coated glass coverslips and fixed in cold (−20° C.) anhydrous methanol for 15 min. Samples were re-hydrated in PBS (150 mM NaCl, 20 mM Na-phosphate, pH 7.2), rinsed with 10% PBS (diluted with water) and stained with 120 μM compound I in 10% PBS for 15 min at room temperature in the dark. Samples were mounted, without washing, using the FluorSave™ mounting medium (Calbiochem) or Mowiol and analysed within 3 hours. For image acquisition (FIG. 5B,D) cells were illuminated continuously (open shutter) for 30 min using an Omega filter set XF100-2 (see above). […] Fluorescence of each region at the last time point was taken as 100% and fluorescence intensities at the same region at previous time points (frames) were calculated using Microsoft Excel software.
To quantify this effect, live mouse fibroblasts were incubated in the presence of 5 μM compound I and time-lapse video microscopy was used to film the cells. Nuclear fluorescence develops slowly in the nuclei of cells treated with compound I and illuminated continuously using a standard Alexa488/FITC filter set (475AF40, 535AF45) (FIG. 5A). […] To test this possibility, the inventors stained nuclei of fixed cells with compound I and measured nuclear fluorescence during a continuous 30 min illumination. […]

[2] = system: primary human fibroblasts; assay: nuclear fluorescence compared with cyclin A immunofluorescence (DNA quantification); format: cell-based; details: methanol-fixed cells
Source text: Such a double staining carried the risk of a possible competition for binding sites and/or unpredictable effects on fluorescence. Therefore, the inventors decided to compare the integrated total fluorescence of compound I-stained nuclei in fixed cells with a known cell cycle protein marker. The inventors fixed primary human fibroblasts with methanol, performed indirect immunofluorescence with anti-cyclin A antibodies, followed by Alexa 568-labelled secondary antibodies and counterstained nuclei with compound I. Cyclin A accumulates in cells beginning at the S phase and throughout the G2 cell cycle phase, and unlike cyclin B, is practically all nuclear (rev. in Pines, J. et al., 1992, Ciba Found Symp, 170, 187-196; discussion 196-204.). […] Moreover, the inventors observed a direct correlation of the compound I fluorescence with that of cyclin A in cyclin A-positive cells (FIG. 6B). […] This correlates well with 2N and 4N DNA content expected to be found in G1 and G2 cells, respectively.

[3] = system: human histone 1 (H1); assay: titration of plasmid DNA with dye in absence or presence of histone 1; format: biochemical
[4] = system: Xenopus cells XL177; assay: visual phenotypic screen on live Xenopus cells XL177; format: cell-based
Procedure: In this study, three different types of cells were used: Xenopus epithelial cell line XL177 (Miller, L. et al., 1977, In Vitro, 13, 557-563) stably transformed with a YFP-α-tubulin expressing construct (pEYFP-Tub, Clontech), mouse fibroblasts, and primary human skin fibroblasts. XL177 cells were grown at 20° C. in 60% Leibowitz-15 medium, supplemented with antibiotics, 10% fetal calf serum (FCS) and 10 mM HEPES, pH 7.2 with addition of 0.7 mg/ml G418. Cells were plated into glass-bottom 96-well plates (Greiner, Germany) and left to spread for 24 hours before being incubated in the presence of the test compounds from the Curie-CNRS small molecule library (at 25 or 50 μM final concentration) for another 20-24 hours. Mouse and human fibroblasts were grown in DMEM with antibiotics and 10% FCS at 37° C. in the presence of 5% CO2. The cells were observed using a Zeiss Axiovert 200M microscope with a 40× oil immersion objective and a standard Alexa488/FITC filter (Omega, XF100-2; Ex475AF40/Em535AF45/Dichroic505). Subsequent experiments were carried out using smaller concentrations of compound I and incubation times as described in the text and figures legends. For the in vivo tests of compound I-like compounds, the molecules were added to cell culture medium at 10 μM final concentration and incubated with cells 10-60 min (up to 24 hours) prior to scoring.
The signal appeared after 10-20 sec illumination and was stable for many minutes thereafter (see below).

cell membrane permeability ([4]; live cells): cell-membrane permeant
Compound: COc1ccc2c(c1)c(C)nc1c3ccc(OC)cc3c(NCCCN(C)C)nc21 [Compound I, N′-(2,8-dimethoxy-12-methyl-dibenzo[c,h][1,5]naphthyridin-6-yl)-N,N-dimethyl-propane-1,3-diamine]
average pixel values in a representative nucleus ([1]; plane (1), start of 30 min illumination): 512
average pixel values in a representative nucleus ([1]; plane (1800), end of 30 min illumination): 1434
dye fluorescence of strongly cyclin A-positive nuclei relative to cyclin A-negative nuclei [2]: approximately twice as much
effect of H1 on dye/DNA fluorescence ([3]; 1 μM plasmid DNA, 1 μM H1, emission 484 nm, excitation 435 nm): H1 significantly affected the fluorescence
effect of H1 on free dye fluorescence ([3]; excited at 391 nm): not quenched by H1
illumination time before nuclear signal appeared ([4]; Alexa488/FITC filter): 10 to 20 s
toxicity in cultured cells ([4]; standard cell culture conditions): non-toxic under standard cell culture conditions (up to six days in culture)
